Assay [1] deals with OE21 oesophageal cancer cells. Briefly: MTT test, overall cell growth, OE21. Type of assay: cell-based, human. A digest of the protocol: (§1)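 Glioma (Hs683, T98G, U373) and oesophageal (OE21, OE33) lines seeded at 5,000–8,000 cells/well, treated 24 h later with compound at 1×10^−8 to 1×10^−4 M for 72 h at 37 °C, in sestuplicate.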
On the technique in general: Tetrazolium assays rely on reduction of a dye to a coloured formazan, in cell work by metabolically active cells.

In assay [2] the test system is U373 cells. The assay is described as follows: Cellular imaging (videomicroscopy) of cultured U373 cells: antiproliferative class and global growth ratio. Type of assay: cell-based, human. Also noted: key to Anti proliferative class / anti-proliferative class-GGR: class I: actually cytostatic for 3 days (<10% of cell death at the 3rd day); class II: cyctostatic but becomes cytotoxic with <10% cell death on the 2nd day, and >20% of cell death on the 3rd day; class III: cytostatic but rapidly becomes cytotoxic with <10% cell death on the 1st day, >20% of cell death on the 2nd day and >50% of cell death on the 3rd day; class IV: cytotoxic (>50% of cell death on the first day). Conditions: for global growth ratio (GGR): GG treated cells/GG control cells, 72 h after drug addition, drug at its IC50 (MTT-test determined); for anti-proliferative class-GGR: Table 4; for Anti proliferative class: cellular imaging of cultured U373 cells over three consecutive days. A digest of the protocol: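 U373-MG glioma cells seeded at low density, exposed or not to compound […], filmed by videomicroscopy for 72 h, in quadruplicate. Cells counted on first (0 h) and last (72 h) images; GGR = final/initial count, reported as GGR treated/GGR control.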

The test system of assay [3] is OE33 oesophageal cancer cells. The assay is described as follows: MTT test, overall cell growth, OE33. Type of assay: cell-based, human. A digest of the protocol: as §1
For assay [4], the system named is human cancer cell lines (U373, T98G, Hs683, OE21, OE33). The assay is described as follows: MTT test, mean over the cancer cell lines. Type of assay: cell-based. A digest of the protocol:
as §1

Assay [5] concerns Hs683 glioma cells. The assay is described as follows: MTT test, overall cell growth, Hs683. Type of assay: cell-based, human. A digest of the protocol:
as §1

Assay [6] concerns T98G glioma cells. The assay is described as follows: MTT test, overall cell growth, T98G. Type of assay: cell-based, human. Conditions: 72 hours of incubation. A digest of the protocol:
as §1

Assay [7] has as its system U373 glioma cells. The assay is described as follows: MTT test, overall cell growth, U373. Type of assay: cell-based, human. As to conditions: 72 hours of incubation. A digest of the protocol: as §1
The mark [8] stands for this setting: Homo sapiens, OE21, 72 hours of incubation.
Setting [9] is: Homo sapiens, OE33, 72 hours of incubation.
The mark [10] stands for this setting: Homo sapiens, Table 4, mean over cell lines, read-out: IC50 μM growth inhibition (MTT test).
The mark [11] stands for this setting: Homo sapiens, mean over the cancer cell lines, MTT test, read-out: IC50 Mean ± SEM.
[12] abbreviates: Homo sapiens, Hs 683, 72 hours of incubation.
Where [13] appears, read: Table 4, mean over cell lines, read-out: IC50 μM growth inhibition (MTT test).
Where [14] appears, read: mean over the cancer cell lines, MTT test, read-out: IC50 Mean ± SEM.

This is an account of results in patent US9168247B2, “Beta carboline derivatives useful in the treatment of proliferative disorders” (FACULTES UNIVERSITAIRES NOTRE DAME DE LA PAIX, priority 2010, dated 2015).

For orientation: IC50 means the concentration that gives 50% inhibition.

Structures are written as SMILES. Read-outs that look alike come from different tables or passages of the source.

Take `Cc1nccc2c3ccc(OCc4ccccc4)cc3n(Cc3ccccc3)c12` [CV9/JR84, 1-methyl-7-benzyloxy-9-benzyl-β-carboline]: the IC50 in assay [1] (setting [8]) amounted to 28 ± 3 µM; in assay [3] (setting [9]) it was 40 ± 4 µM; in assay [4] (setting [10]), 31 µM; in assay [4] (setting [11]), 31 ± 4 µM; in assay [5] (setting [12]) it was 33 ± 1 µM; in assay [6] (Homo sapiens, T98G), 36 ± 2 µM. The IC50 in assay [7] (Homo sapiens, U373 MG) is 18 ± 2 µM. Besides, the “global growth ratio (GGR)” value in assay [2] was 0.3. Moreover, in assay [2], the “anti-proliferative class-GGR” value was “(II)”. The Anti proliferative class entry in assay [2] is on record as “II”.
As to `Cc1c2c(cc[n+]1Cc1ccccc1)c1ccc(OCc3ccccc3)cc1n2Cc1ccccc1.[Br-]` [CV21/JR95, 1-methyl-2-benzyl-7-benzyloxy-9-benzyl-β-carbolin-2-ium bromide], the IC50 in assay [1] (setting [8]) came to 1.3 ± 0.2 µM; in assay [3] (setting [9]), 0.7 ± 0.1 µM; in assay [4] (setting [10]), 0.7 µM; in assay [4] (setting [11]), 0.7 ± 0.2 µM; in assay [5] (setting [12]), 0.49 ± 0.05 µM; in assay [6] (Homo sapiens, T98G), 0.48 ± 0.02 µM. It took 0.44 ± 0.01 µM to reach half-maximal inhibition in assay [7] (Homo sapiens, U373 MG) (IC50). Also, the “global growth ratio (GGR)” value in assay [2] is given as 0.4. Further, the “anti-proliferative class-GGR” value in assay [2] is given as “(I) (class I: actually cytostatic for 3 days (<10% of cell death at the 3rd day))”. In addition, the Anti proliferative class entry in assay [2] is reported as “I (class I: actually cytostatic for 3 days (<10% of cell death at the 3rd day))”.
Consider `Cc1nccc2c1[nH]c1cc(OCc3cccnc3)ccc12` [JR212], for which the IC50 in assay [1] (72 hours of incubation) is 28 ± 2 µM; in assay [3] (72 hours of incubation), 31 ± 2 µM; in assay [4] (setting [13]), 29 µM; in assay [4] (setting [14]) it was 29 ± 1 µM; in assay [5] (72 hours of incubation), 30 ± 3 µM; in assay [6], 29 ± 2 µM. This compound also had an IC50 in assay [7] of 24 ± 1 µM. In assay [2], the “global growth ratio (GGR)” value amounted to 0.3. The “anti-proliferative class-GGR” value in assay [2] is recorded as “(I) (class I: actually cytostatic for 3 days (<10% of cell death at the 3rd day))”. For the same compound, in assay [2], the Anti proliferative class entry is recorded as “I (class I: actually cytostatic for 3 days (<10% of cell death at the 3rd day))”.
Take `COCCOc1ccc2c(c1)[nH]c1c(C)nccc12` [JR220]: the IC50 came to 53 ± 4 µM in assay [1] (72 hours of incubation); 66 ± 3 µM in assay [3] (72 hours of incubation); 60 µM in assay [4] (setting [13]); 60 ± 3 µM in assay [4] (setting [14]); 53 ± 6 µM in assay [5] (72 hours of incubation); 61 ± 7 µM in assay [6]. The same compound came in with an IC50 in assay [7] of 64 ± 4 µM. The “global growth ratio (GGR)” value in assay [2] is 0.2. Besides, in assay [2], the “anti-proliferative class-GGR” value is recorded as “(I) (class I: actually cytostatic for 3 days (<10% of cell death at the 3rd day))”. For the same compound, the Anti proliferative class result in assay [2] is recorded as “I (class I: actually cytostatic for 3 days (<10% of cell death at the 3rd day))”.
